# Results from patent US8314092B2, “Substituted [(5H-pyrrolo[2,1-c][1,4]benzodiazepin-11-yl)piperazin-1-yl]-2,2-dimethylpropanoic acid compounds as dual activity H1 inverse agonists/5-HT2A antagonists” (Eli Lilly and Company, priority 2011, dated 2012).
# pEC50, pKi: −log10 of the molar value. Where a name gives a salt, the structure may show the parent alone.
# How the values were obtained:
# 5-HT5 = 5-HT5 (Homo sapiens, UniProt P47898); assay: 5-HT5 binding
# Excerpt: (§1) Further, the compounds of the invention may be tested in binding assays and functional activity assays by well known methods for other physiologically important receptors such as, but not limited to, the hERG channel, other serotonin receptors (specifically 5-HT1A, 5-HT1B, 5-HT1D, 5-HT1E, 5-HT1F receptors, lack of agonist activity at 5-HT2B receptors, 5-HT2C, 5-HT4, 5-HTS, 5-HT6, and 5-HT7 receptors), muscarinic receptors, dopaminergic receptors (specifically D1, D2, and D3), GABAA receptors, adrenergic receptors and monoamine transporters. Certain exemplified compounds are tested at these receptors and are shown to lack significant activity.
# 5-HT1F = 5-HT1F (Homo sapiens, UniProt P30939); assay: 5-HT1F binding
# 5-HT1F, sequence (P30939 whole entry, species assumed): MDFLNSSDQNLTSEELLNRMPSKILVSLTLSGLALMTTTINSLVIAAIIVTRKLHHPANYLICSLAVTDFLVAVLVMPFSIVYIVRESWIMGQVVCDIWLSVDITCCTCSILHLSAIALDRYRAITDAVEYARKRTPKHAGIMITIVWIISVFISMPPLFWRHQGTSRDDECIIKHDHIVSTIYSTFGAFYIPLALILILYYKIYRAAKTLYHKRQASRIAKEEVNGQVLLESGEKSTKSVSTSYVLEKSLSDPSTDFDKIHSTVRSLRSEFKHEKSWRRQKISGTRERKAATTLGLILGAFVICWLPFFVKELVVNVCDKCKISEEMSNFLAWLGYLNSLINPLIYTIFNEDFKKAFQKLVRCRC
# Excerpt: as §1
# 5-HT2B receptors = 5-HT2B receptors (Homo sapiens, UniProt P41595); assay: 5-HT2B agonist functional activity assay; format: cell-based
# 5-HT2B receptors, sequence (P41595 whole entry): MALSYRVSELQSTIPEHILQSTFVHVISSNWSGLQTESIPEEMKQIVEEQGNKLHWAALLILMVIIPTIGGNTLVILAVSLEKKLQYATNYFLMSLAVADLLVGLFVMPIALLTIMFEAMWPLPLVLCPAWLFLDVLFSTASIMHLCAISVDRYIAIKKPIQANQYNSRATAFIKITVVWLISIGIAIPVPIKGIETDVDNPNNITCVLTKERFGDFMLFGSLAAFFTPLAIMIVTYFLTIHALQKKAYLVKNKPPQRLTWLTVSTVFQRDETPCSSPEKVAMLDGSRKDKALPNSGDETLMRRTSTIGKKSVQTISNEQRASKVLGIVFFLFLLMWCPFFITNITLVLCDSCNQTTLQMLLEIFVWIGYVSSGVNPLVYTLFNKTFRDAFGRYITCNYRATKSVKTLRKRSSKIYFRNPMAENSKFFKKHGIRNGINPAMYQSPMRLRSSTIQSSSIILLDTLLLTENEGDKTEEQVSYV
# Excerpt: as §1
# Adrenergic alpha2B = Adrenergic alpha2B (Homo sapiens, UniProt P18089); assay: Adrenergic alpha2B binding
# Adrenergic alpha2B, sequence (P18089 whole entry): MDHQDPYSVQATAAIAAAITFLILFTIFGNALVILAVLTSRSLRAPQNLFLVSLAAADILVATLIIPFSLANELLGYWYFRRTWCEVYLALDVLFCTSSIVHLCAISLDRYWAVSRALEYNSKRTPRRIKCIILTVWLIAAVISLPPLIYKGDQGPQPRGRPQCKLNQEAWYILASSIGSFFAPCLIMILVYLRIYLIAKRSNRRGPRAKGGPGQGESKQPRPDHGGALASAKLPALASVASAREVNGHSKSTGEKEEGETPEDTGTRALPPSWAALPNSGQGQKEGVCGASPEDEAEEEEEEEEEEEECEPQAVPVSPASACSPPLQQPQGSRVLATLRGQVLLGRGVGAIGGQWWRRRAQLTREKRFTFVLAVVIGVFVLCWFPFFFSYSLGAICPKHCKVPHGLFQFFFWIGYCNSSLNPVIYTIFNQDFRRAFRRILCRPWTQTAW
# Excerpt: as §1
# Adrenergic alpha2C = Adrenergic alpha2C (Homo sapiens, UniProt P18825); assay: Adrenergic alpha2C binding
# Adrenergic alpha2C, sequence (P18825 whole entry): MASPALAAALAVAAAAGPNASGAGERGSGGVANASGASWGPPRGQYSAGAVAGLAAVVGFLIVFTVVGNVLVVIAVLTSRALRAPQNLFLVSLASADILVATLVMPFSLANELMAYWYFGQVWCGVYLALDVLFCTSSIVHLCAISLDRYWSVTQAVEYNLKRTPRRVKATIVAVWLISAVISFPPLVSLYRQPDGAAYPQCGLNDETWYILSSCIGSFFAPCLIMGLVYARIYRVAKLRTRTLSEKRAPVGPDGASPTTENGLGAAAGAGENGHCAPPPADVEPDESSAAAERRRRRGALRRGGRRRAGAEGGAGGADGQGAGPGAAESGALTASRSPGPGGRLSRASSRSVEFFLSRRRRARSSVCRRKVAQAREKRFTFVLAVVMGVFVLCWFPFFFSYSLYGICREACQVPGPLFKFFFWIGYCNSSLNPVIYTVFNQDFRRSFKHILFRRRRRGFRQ
# Excerpt: as §1
# 5-HT2A receptor = molecular target: T1, 5-HT2A receptor (Mus musculus, UniProt P35363); assay: Inhibition of DOI induced headshake activity; format: in vivo; settings: mice, 10 mg/kg PO, 60 minutes pre-treatment, DOI 3 mg/kg
# T1 construct: male C57BL/6J mice (20-25 g, Charles River); from tissue; host or cells: living C57BL/6J mouse (whole animal, behavioural read-out)
# T1 sequence (P35363 whole entry): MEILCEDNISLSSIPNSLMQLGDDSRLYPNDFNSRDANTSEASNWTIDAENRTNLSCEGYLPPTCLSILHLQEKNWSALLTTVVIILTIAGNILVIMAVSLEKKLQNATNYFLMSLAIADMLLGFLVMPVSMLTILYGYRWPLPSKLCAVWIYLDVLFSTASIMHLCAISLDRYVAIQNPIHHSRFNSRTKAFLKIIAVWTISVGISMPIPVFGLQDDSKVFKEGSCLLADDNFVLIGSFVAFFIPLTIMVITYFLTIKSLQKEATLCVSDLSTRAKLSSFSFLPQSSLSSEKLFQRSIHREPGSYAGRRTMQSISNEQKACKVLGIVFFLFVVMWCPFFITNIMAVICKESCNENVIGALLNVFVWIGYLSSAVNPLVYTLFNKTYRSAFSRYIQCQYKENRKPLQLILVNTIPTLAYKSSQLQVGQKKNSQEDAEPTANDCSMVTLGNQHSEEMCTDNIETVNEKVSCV
# Method: (see for example Bartoszyk G D, van Amsterdam C, Böttcher H, Seyfried C A. EMD 281014, a new selective serotonin 5-HT2A receptor antagonist. Eur J Pharmacol. 2003 473: 229-230.) Briefly, male C57BL/6J mice (20-25 g, Charles River) are housed in standard housing conditions (32 mice in a large IVC cage, 07.00 to 19.00 light phase, constant temperature (19-23° C.) and humidity (50%+/−10), ad lib food and water). Mice received either vehicle (0.25% Methyl cellulose), DOI (3 mg/kg in saline) or test compound at 10 mg/kg PO plus DOI (3 mg/kg in saline). Test compounds are individually evaluated in groups of four per experiment with n=4 for each compound, together with vehicle and DOI+vehicle (n=8). After a test compound pre-treatment time of 60 minutes the mice receive either vehicle (saline) or 3 mg/kg DOI dosed subcutaneously, and are then placed into clear perspex observation chambers. […] The data is analyzed using an ANOVA and post-hoc Dunnet's Test. Exemplified compounds are tested essentially as described and are found to inhibit the DOI induced headshake response at greater than 90% at 10 mg/kg. The compound of example 13 is tested essentially as described and is found to inhibit the DOI induced headshake response at 100% at 10 mg/kg.
# Dopamine Transporter = Dopamine Transporter (Homo sapiens, UniProt Q01959); assay: Dopamine transporter assay; format: binding; settings: dihydrochloride
# Dopamine Transporter, sequence (Q01959 whole entry): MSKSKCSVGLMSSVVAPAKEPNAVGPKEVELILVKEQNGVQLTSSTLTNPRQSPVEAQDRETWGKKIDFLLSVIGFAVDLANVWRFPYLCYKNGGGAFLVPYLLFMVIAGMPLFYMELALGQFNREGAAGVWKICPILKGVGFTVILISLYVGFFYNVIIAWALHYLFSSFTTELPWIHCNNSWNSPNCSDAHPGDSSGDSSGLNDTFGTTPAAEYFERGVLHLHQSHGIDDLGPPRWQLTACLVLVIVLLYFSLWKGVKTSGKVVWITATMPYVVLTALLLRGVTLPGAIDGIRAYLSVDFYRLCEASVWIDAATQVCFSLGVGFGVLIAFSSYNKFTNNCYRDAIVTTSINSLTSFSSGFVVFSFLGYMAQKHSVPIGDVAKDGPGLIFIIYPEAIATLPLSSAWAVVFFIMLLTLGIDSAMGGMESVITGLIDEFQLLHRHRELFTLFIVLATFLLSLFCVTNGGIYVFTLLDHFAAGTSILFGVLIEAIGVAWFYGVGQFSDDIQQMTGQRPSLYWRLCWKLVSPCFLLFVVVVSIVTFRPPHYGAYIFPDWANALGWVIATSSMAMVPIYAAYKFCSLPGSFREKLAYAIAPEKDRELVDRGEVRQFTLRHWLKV
# Excerpt: as §1
# Norepinephrine Transport = Norepinephrine Transport (Homo sapiens, UniProt P23975); assay: Norepinephrine transporter assay; format: binding; settings: dihydrochloride
# Norepinephrine Transport, sequence (P23975 whole entry): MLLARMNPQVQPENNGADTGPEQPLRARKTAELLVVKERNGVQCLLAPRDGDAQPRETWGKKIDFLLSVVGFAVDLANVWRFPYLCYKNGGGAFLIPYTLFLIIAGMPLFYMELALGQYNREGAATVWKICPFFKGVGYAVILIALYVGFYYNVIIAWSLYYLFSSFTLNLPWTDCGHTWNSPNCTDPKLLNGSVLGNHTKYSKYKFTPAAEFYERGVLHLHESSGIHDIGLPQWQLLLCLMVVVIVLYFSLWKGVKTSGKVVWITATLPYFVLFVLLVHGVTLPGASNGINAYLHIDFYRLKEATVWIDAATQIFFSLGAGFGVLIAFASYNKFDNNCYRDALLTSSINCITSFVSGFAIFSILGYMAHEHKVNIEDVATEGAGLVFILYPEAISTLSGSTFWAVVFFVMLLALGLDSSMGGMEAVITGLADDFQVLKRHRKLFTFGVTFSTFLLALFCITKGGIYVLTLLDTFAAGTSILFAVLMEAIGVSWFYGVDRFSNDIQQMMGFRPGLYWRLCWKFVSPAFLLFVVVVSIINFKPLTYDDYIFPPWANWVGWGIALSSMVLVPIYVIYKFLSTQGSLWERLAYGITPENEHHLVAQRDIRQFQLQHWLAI
# Excerpt: as §1
# 5-HT5, sequence (P47898 whole entry, species assumed): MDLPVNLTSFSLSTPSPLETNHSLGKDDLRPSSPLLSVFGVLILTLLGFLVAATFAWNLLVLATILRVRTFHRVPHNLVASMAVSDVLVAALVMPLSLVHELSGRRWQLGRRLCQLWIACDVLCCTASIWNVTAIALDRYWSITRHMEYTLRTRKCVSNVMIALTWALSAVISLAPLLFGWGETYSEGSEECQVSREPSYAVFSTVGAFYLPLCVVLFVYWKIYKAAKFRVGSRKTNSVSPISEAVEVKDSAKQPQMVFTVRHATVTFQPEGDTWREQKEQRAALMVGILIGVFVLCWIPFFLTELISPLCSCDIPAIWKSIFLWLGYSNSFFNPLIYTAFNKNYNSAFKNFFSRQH
compound,measurement,setting,value
"Cc1cc2n(c1)Cc1cc(Cl)ccc1N=C2N1CCN(CC(C)(C)C(=O)O)CC1 [Example 13, 3-[4-(7-Chloro-2-methyl-5H-pyrrolo[2,1-c][1,4]benzodiazepin-11-yl)piperazin-1-yl]-2,2-dimethylpropanoic acid dihydrochloride]",pKi,5-HT5,< 5.04
same,pKi,5-HT1F,< 5.08
same,pEC50,5-HT2B receptors,< 5.00
same,pKi,Adrenergic alpha2B,< 5.32
same,pKi,Adrenergic alpha2C,< 5.27
same,inhibition of DOI induced headshake response,5-HT2A receptor,100%
same,Dopamine Transporter,Dopamine Transporter,>880
same,Norepinephrine Transport,Norepinephrine Transport,>526
